In patent US20250059172A1, “INDAZOLE COMPOUND AND PHARMACEUTICAL” (NIPPON SHINYAKU CO., LTD., priority 2021, published 2025):
Structures can show the parent of a compound that is named as a salt.

Assays:
[1] = target: human mPGES-1 (Homo sapiens (Human), UniProt O14684); experiment: mPGES-1 inhibitory activity test; format: biochemical; conditions: for inhibition at 0.01 µM: 10 nM test compound; for inhibition at 0.1 µM: 100 nM test compound; for IC50: microsomes of CHO-K1 cells expressing human mPGES-1, PGH2 1 μM, PGE2 by HTRF, read-out: mPGES-1 inhibition (IC50 nM)
Chain of human mPGES-1 (O14684 whole entry): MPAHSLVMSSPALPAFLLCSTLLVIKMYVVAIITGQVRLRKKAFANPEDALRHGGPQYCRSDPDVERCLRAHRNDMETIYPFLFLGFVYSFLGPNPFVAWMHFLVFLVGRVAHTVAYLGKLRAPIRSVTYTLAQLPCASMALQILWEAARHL
In short: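 PGE2 formation was quantified by HTRF and reported as percent inhibition at 10 and 100 nM compound or as IC50. The 60-second reaction at 4° C used 1 μM PGH2, after a 20-minute 4° C preincubation of compound (1% DMSO final) with glutathione-supplemented (2.5 mM, pH 7.4) microsomes. The microsomes were from transiently transfected CHO-K1 cells expressing human mPGES-1.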

[2] = system: human A549 cells; experiment: Inhibition test of PGE2 production using human A549 cells; format: cell-based; conditions: IL-1β stimulated A549 cells, 24 h, PGE2 by HTRF, read-out: A549 cell inhibition of PGE2 production IC50
In short: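 A549 cells were preincubated 60 min with compound in RPMI/3% FBS (0.1% DMSO final), then stimulated with IL-1β (5 ng/well) for 24 h at 37°C. PGE2 was measured by HTRF and PGF2a by EIA; activity was normalized to stimulated minus unstimulated controls, and IC50 derived.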

Structure (SMILES) | inhibition at 0.01 µM [1] [%] | inhibition at 0.1 µM [1] [%] | IC50 [2] [nM] | IC50 [1] [nM]
CC(C)(C)CC(=O)NCc1ccc(Cl)c(C(=O)Nc2cccc3c2cnn3-c2cccc(OC(F)(F)F)c2)c1 [Example 121, 2-Chloro-5-{[(3,3-dimethylbutanoyl)amino]methyl}-N-{1-[3-(trifluoromethoxy)phenyl]-1H-indazol-4-yl}benzamide] | 48 | – | 10 | –
CC(C)(C)c1ccc(-n2ncc3c(NC(=O)c4cc(CNC(=O)C5CC5)ccc4Cl)cccc32)cc1 [Example 14, N-[1-(4-tert-butylphenyl)-1H-indazol-4-yl]-2-chloro-5-{[(cyclopropylcarbonyl)amino]methyl}benzamide] | – | – | 0.4 | 1.1
O=C(Nc1cccc2c1cnn2-c1ccc(C(F)(F)F)cc1)c1cc(CNC(=O)[C@H]2CC[C@H](O)CC2)ccc1Cl [Example 39, 2-Chloro-5-({[trans-(4-hydroxycyclohexyl)carbonyl]amino}methyl)-N-{1-[4-(trifluoromethyl)phenyl]-1H-indazol-4-yl}benzamide] | – | – | 5.1 | 7.5
O=C(NCc1ccc(Cl)c(C(=O)Nc2cccc3c2cnn3-c2ccc(C(F)(F)F)cc2)c1)c1ccco1 [Example 45, N-[4-chloro-3-({1-[4-(trifluoromethyl)phenyl]-1H-indazol-4-yl}carbamoyl)benzyl]furan-2-carboxamide] | – | – | 37.6 | 1.2
CC(C)(C)CC(=O)NCc1ccc(Cl)c(C(=O)Nc2cccc3c2cnn3-c2ccc(OC(F)(F)F)cc2)c1 [Example 114, 2-Chloro-5-{[(3,3-dimethylbutanoyl)amino]methyl}-N-{1-[4-(trifluoromethoxy)phenyl]-1H-indazol-4-yl}benzamide] | 87 | – | 1.9 | –
CC(C)n1ncc2c(NC(=O)c3cc(CNC(=O)C(C)(C)C)ccc3Cl)cccc21 [Example 102, 2-Chloro-5-{[(2,2-dimethylpropanoyl)amino]methyl}-N-[1-(propan-2-yl)-1H-indazol-4-yl]benzamide] | – | – | 20.7 | 3.1
O=C(CC1CCCC1)NCc1ccc(Cl)c(C(=O)Nc2cccc3c2cnn3-c2ccc(C(F)(F)F)cc2)c1 [Example 46, 2-Chloro-5-{[(cyclopentylacetyl)amino]methyl}-N-{1-[4-(trifluoromethyl)phenyl]-1H-indazol-4-yl}benzamide] | – | – | 14.3 | 3
O=C(Nc1cccc2c1cnn2-c1cccc(OC(F)(F)F)c1)c1cc(CNS(=O)(=O)C2CC2)ccc1Cl [Example 126, 2-Chloro-5-{[(cyclopropylsulfonyl)amino]methyl}-N-{1-[3-(trifluoromethoxy)phenyl]-1H-indazol-4-yl}benzamide] | 100 | – | 9.8 | –
Cc1cc(-n2ncc3c(NC(=O)c4cc(CNC(=O)C(C)(C)C)ccc4Cl)cccc32)cc(C)n1 [Example 76, 2-Chloro-5-{[(2,2-dimethylpropanoyl)amino]methyl}-N-[1-(2,6-dimethylpyridin-4-yl)-1H-indazol-4-yl]benzamide hydrochloride] | – | – | 5.2 | 2.4
COc1cccc(Cn2ncc3c(NC(=O)c4cc(CNC(=O)C(C)(C)C)ccc4Cl)cccc32)c1 [Example 89, 2-Chloro-5-{[(2,2-dimethylpropanoyl)amino]methyl}-N-[1-(3-methoxybenzyl)-1H-indazol-4-yl]benzamide] | – | – | 20.7 | 3.5
CC(C)(C)C(=O)NCc1ccc(Cl)c(C(=O)Nc2cccc3c2cnn3CCc2ccccc2)c1 [Example 95, 2-Chloro-5-{[(2,2-dimethylpropanoyl)amino]methyl}-N-[1-(2-phenylethyl)-1H-indazol-4-yl]benzamide] | – | – | 2.7 | 1.2

Other lines, results leading:

inhibition at 0.01 µM [1] [%] | inhibition at 0.1 µM [1] [%] | IC50 [2] [nM] | IC50 [1] [nM] | Structure (SMILES)
85 | 97 | 20.1 | – | CC(C)(C)C(=O)NCc1ccc(C(F)(F)F)c(C(=O)Nc2cccc3c2cnn3-c2cscn2)c1 [Example 201, 5-{[(2,2-Dimethylpropanoyl)amino]methyl}-N-[1-(1,3-thiazol-4-yl)-1H-indazol-4-yl]-2-(trifluoromethyl)benzamide]
57 | 85 | 43.6 | – | Cn1ncc2c(NC(=O)c3cc(CNC(=O)C4CCCC4)ccc3Cl)cccc21 [Example 204, 2-Chloro-5-{[(cyclopentylcarbonyl)amino]methyl}-N-(1-methyl-1H-indazol-4-yl)benzamide]
95 | 100 | 2.7 | – | COCC(=O)NCc1ccc(Cl)c(C(=O)Nc2cccc3c2cnn3-c2ccc(OC)c(C(F)(F)F)c2)c1 [Example 265, 2-Chloro-5-{[(methoxyacetyl)amino]methyl}-N-{1-[4-methoxy-3-(trifluoromethyl)phenyl]-1H-indazol-4-yl}benzamide]
100 | – | 14.3 | – | CC(C)(C)CC(=O)NCc1ccc(Cl)c(C(=O)Nc2cccc3c2cnn3-c2ccc(F)cc2)c1 [Example 151, 2-Chloro-5-{[(3,3-dimethylbutanoyl)amino]methyl}-N-[1-(4-fluorophenyl)-1H-indazol-4-yl]benzamide]
68 | – | 102 | – | O=C(Nc1cccc2c1cnn2-c1cscn1)c1cc(CNC(=O)C2CCCC2)ccc1Cl [Example 188, 2-Chloro-5-{[(cyclopentylcarbonyl)amino]methyl}-N-[1-(1,3-thiazol-4-yl)-1H-indazol-4-yl]benzamide]
92 | – | 6.3 | – | CC(C)(C)CC(=O)NCc1ccc(Cl)c(C(=O)Nc2cccc3c2cnn3-c2ccc(Cl)cc2)c1 [Example 145, 2-Chloro-N-[1-(4-chlorophenyl)-1H-indazol-4-yl]-5-([(3,3-dimethylbutanoyl)amino]methyl)benzamide]
92 | 92 | 0.5 | – | Cc1ccc(-n2ncc3c(NC(=O)c4cc(CNC(=O)C(C)(C)CO)ccc4Cl)cccc32)cc1C(F)(F)F [Example 259, 2-Chloro-5-{[(3-hydroxy-2,2-dimethylpropanoyl)amino]methyl}-N-{1-[4-methyl-3-(trifluoromethyl)phenyl]-1H-indazol-4-yl}benzamide]
49 | 100 | 1.6 | – | CC(C)(C)C(=O)NCc1ccc(Cl)c(C(=O)Nc2cccc3c2cnn3-c2ccc(F)cc2)c1Cl [Example 158, 2,6-Dichloro-3-{[(2,2-dimethylpropanoyl)amino]methyl}-N-[1-(4-fluorophenyl)-1H-indazol-4-yl]benzamide]
100 | – | 1 | – | O=C(Nc1cccc2c1cnn2-c1ccc(F)cc1)c1cc(CNC(=O)C2(C(F)(F)F)CC2)ccc1Cl [Example 153, 2-Chloro-N-[1-(4-fluorophenyl)-1H-indazol-4-yl]-5-[({[1-(trifluoromethyl)cyclopropyl]carbonyl}amino)methyl]benzamide]
54 | 100 | 59.4 | – | O=C(Nc1cccc2c1cnn2-c1cccc(OC(F)F)c1)c1cc(CNC(=O)C2(O)CC2)ccc1Cl [Example 141, 2-Chloro-N-{1-[3-(difluoromethoxy)phenyl]-1H-indazol-4-yl}-5-({[(1-hydroxycyclopropyl)carbonyl]amino}methyl)benzamide]
64 | – | 4.7 | – | Cc1ccc(-n2ncc3c(NC(=O)c4cc(CNC(=O)CC(C)(C)C)ccc4Cl)cccc32)cc1Cl [Example 127, 2-Chloro-N-[1-(3-chloro-4-methylphenyl)-1H-indazol-4-yl]-5-{[(3,3-dimethylbutanoyl)amino]methyl}benzamide]
83 | – | < 1 | – | O=C(Nc1cccc2c1cnn2-c1cccc(C(F)(F)F)c1)c1cc(CNS(=O)(=O)C2CC2)ccc1Cl [Example 224, 2-Chloro-5-{[(cyclopropylsulfonyl)amino]methyl}-N-{1-[3-(trifluoromethyl)phenyl]-1H-indazol-4-yl}benzamide]
94 | 97 | 5.1 | – | COc1ccc(-n2ncc3c(NC(=O)c4cc(CNC(=O)C5(O)CC5)ccc4Cl)cccc32)cc1C(F)(F)F [Example 264, 2-Chloro-5-({[(1-hydroxycyclopropyl)carbonyl]amino}methyl)-N-{1-[4-methoxy-3-(trifluoromethyl)phenyl]-1H-indazol-4-yl}benzamide]
66 | 91 | 3.9 | – | COc1ccc(-n2ncc3c(NC(=O)c4cc(CNS(=O)(=O)C5CC5)ccc4Cl)cccc32)cn1 [Example 275, 2-Chloro-5-{[(cyclopropylsulfonyl)amino]methyl}-N-[1-(6-methoxypyridin-3-yl)-1H-indazol-4-yl]benzamide]
78 | – | 0.6 | – | CC(C)(CO)C(=O)NCc1ccc(Cl)c(C(=O)Nc2cccc3c2cnn3-c2cccc(C(F)(F)F)c2)c1 [Example 223, 2-Chloro-5-{[(3-hydroxy-2,2-dimethylpropanoyl)amino]methyl}-N-{1-[3-(trifluoromethyl)phenyl]-1H-indazol-4-yl}benzamide]
62 | 83 | 0.7 | – | CC(C)(C)C(=O)NCc1ccc(C(F)(F)F)c(C(=O)Nc2cccc3c2cnn3-c2ccc(OC(F)(F)F)cc2)c1 [Example 194, 5-{[(2,2-Dimethylpropanoyl)amino]methyl}-N-{1-[4-(trifluoromethoxy)phenyl]-1H-indazol-4-yl}-2-(trifluoromethyl)benzamide]
